Measured values reported in ChEMBL document CHEMBL5233288, “Ginkgo Biflavones Cause p53 Wild-Type Dependent Cell Death in a Transcription-Independent Manner of p53” (J Nat Prod, 2023).
The source made the active and inactive calls. The rule behind the calls is not given here.

How the values were obtained:
HCT-116 [1] = assay: Upregulation of acetylated p53 protein expression in human HCT-116 cells expressing wild type p53 at 20 uM incubated for 24 hrs by western blot analysis; format: functional, cell-based
HCT-116 [2] = assay: Induction of cell cycle arrest in human HCT-116 cells expressing wild type p53 assessed as accumulation of cells at S phase at 10 uM incubated for 24 hrs by PI staining based flow cytometry (reference value: 0.52 to 3.83%); format: functional
HCT-116 [3] = assay: Cytotoxicity against human HCT-116 cells expressing wild type p53 assessed as induction of cell death at 20 uM incubated for 72 hrs by resazurin based analysis; format: functional
HCT-116 [4] = assay: Downregulation of MDM2 protein expression in human HCT-116 cells at 10 uM incubated for 24 hrs by western blot analysis; format: functional, cell-based
HCT-116 [5] = assay: Upregulation of p53 protein expression in human HCT-116 cells at 10 uM incubated for 24 hrs by western blot analysis; format: functional, cell-based
HCT-116 [6] = assay: Upregulation of p53 protein expression in human HCT-116 cells at 10 uM incubated for 24 hrs in presence of 10 uM 5-FU by western blot analysis; format: functional, cell-based
HCT-116 [7] = assay: Increase in mitochondrial complex III activity in human HCT-116 cells at 20 uM incubated for 24 hrs; format: functional, cell-based
HCT-116 [8] = assay: Induction of apoptosis in human HCT-116 cells expressing wild type p53 assessed as viable cells at 10 uM incubated for 48 hrs by Annexin V-FITC/PI staining based flow cytometry (reference value: 82%); format: functional; conditions: read-out: Activity
HCT-116 [9] = assay: Induction of cell cycle arrest in human HCT-116 cells expressing wild type p53 assessed as accumulation of cells at G2 phase at 20 uM incubated for 24 hrs by PI staining based flow cytometry (reference value: 30.7 to 31.5%); format: functional
HCT-116 [10] = assay: Induction of apoptosis in human HCT-116 cells expressing wild type p53 assessed as late apoptotic cells at 20 uM incubated for 48 hrs by Annexin V-FITC/PI staining based flow cytometry (reference value: 5.37%); format: functional
HCT-116 [11] = assay: Induction of ferroptosis in human HCT-116 cells assessed as increase in iron content at 20 uM incubated for 24 hrs; format: functional, cell-based
HCT-116 [12] = assay: Induction of cell cycle arrest in human HCT-116 cells expressing wild type p53 assessed as accumulation of cells at G1 phase at 10 uM incubated for 24 hrs by PI staining based flow cytometry (reference value: 62.5 to 66.7%); format: functional
LoVo = assay: Cytotoxicity against human LoVo cells expressing wild type p53 assessed as induction of cell death at 20 uM incubated for 72 hrs by resazurin based analysis; format: functional
HCT-116 [13] = assay: Induction of ferroptosis in human HCT-116 cells assessed as reduction in GSH content at 20 uM incubated for 24 hrs; format: functional, cell-based
[14] = target: Cellular tumor antigen p53 (Homo sapiens) (UniProt P04637); assay: Inhibition of p53 DNA binding activity in human HCT-116 cells assessed as reduction in DNA-protein complex formation at 20 uM incubated for 24 hrs by electrophoretic mobility shift analysis; format: cell-based
Sequence of Cellular tumor antigen p53 (Homo sapiens) (P04637 whole entry, looked up): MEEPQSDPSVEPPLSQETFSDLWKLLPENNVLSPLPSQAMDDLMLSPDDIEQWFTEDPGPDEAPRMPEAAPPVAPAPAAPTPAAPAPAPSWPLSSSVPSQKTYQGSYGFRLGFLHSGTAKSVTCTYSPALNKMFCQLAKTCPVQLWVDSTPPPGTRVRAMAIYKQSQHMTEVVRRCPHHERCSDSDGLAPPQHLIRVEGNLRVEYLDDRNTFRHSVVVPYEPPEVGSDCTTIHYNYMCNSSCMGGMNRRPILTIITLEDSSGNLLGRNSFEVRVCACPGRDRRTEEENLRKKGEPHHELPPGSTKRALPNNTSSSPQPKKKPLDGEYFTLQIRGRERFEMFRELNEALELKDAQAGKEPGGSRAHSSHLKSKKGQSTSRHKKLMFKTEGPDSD

HCT-116 [15] = assay: Induction of cell cycle arrest in human HCT-116 cells expressing wild type p53 assessed as accumulation of cells at G2 phase at 5 uM incubated for 24 hrs by PI staining based flow cytometry (reference value: 30.7 to 31.5%); format: functional
HT-29 = assay: Cytotoxicity against human HT-29 cells expressing p53 mutant assessed as induction of cell death at 20 uM incubated for 72 hrs by resazurin based analysis; format: functional
HCT-116 [16] = assay: Induction of apoptosis in human HCT-116 cells expressing wild type p53 assessed as necrotic cells at 20 uM incubated for 48 hrs by Annexin V-FITC/PI staining based flow cytometry (reference value: 0.44%); format: functional
HCT-116 [17] = assay: Upregulation of p53 protein expression in human HCT-116 cells expressing wild type p53 at 20 uM incubated for 24 hrs by western blot analysis; format: functional, cell-based
HCT-116 [18] = assay: Induction of apoptosis in human HCT-116 cells expressing wild type p53 assessed as viable cells at 20 uM incubated for 48 hrs by Annexin V-FITC/PI staining based flow cytometry (reference value: 82.2%); format: functional; conditions: read-out: Activity
HCT-116 [19] = assay: Cytotoxicity against human HCT-116 cells assessed as reduction in cell viability at 10 uM incubated for 72 hrs in presence of apoptosis inhibitor, Z-VAD-FMK by resazurin-based analysis; format: functional
HCT-116 [20] = assay: Induction of intracellular ROS generation in human HCT-116 cells at 20 uM incubated for 24 hrs by DCFH-DA staining based fluorescence analysis; format: functional, cell-based
HCT-116 [21] = assay: Induction of apoptosis in human HCT-116 cells expressing wild type p53 assessed as early apoptotic cells at 10 uM incubated for 48 hrs by Annexin V-FITC/PI staining based flow cytometry (reference value: 12.5%); format: functional
HCT-116 [22] = assay: Induction of mitochondrial membrane potential depolarization in human HCT-116 cells assessed as reduction in mitochondrial membrane potential at 20 uM incubated for 24 hrs by JC-1 staining based fluorescence analysis; format: functional, cell-based
HCT-116 [23] = assay: Induction of cell cycle arrest in human HCT-116 cells expressing wild type p53 assessed as accumulation of cells at G1 phase at 20 uM incubated for 24 hrs by PI staining based flow cytometry (reference value: 62.5 to 66.7%); format: functional
HCT-116 [24] = assay: Induction of cell cycle arrest in human HCT-116 cells expressing wild type p53 assessed as accumulation of cells at G1 phase at 5 uM incubated for 24 hrs by PI staining based flow cytometry (reference value: 62.5 to 66.7%); format: functional
HCT-116 [25] = assay: Induction of apoptosis in human HCT-116 cells expressing wild type p53 assessed as late apoptotic cells at 10 uM incubated for 48 hrs by Annexin V-FITC/PI staining based flow cytometry (reference value: 5.06%); format: functional
[26] = target: Cellular tumor antigen p53 (Homo sapiens) (UniProt P04637); assay: Inhibition of p53 transcriptional activity in human HCT-116 cells assessed as inhibition of protein binding to p21 DNA promoter region at 20 uM incubated for 24 hrs by ChIP analysis; format: cell-based
SW-620 = assay: Cytotoxicity against human SW620 cells expressing p53 mutant assessed as induction of cell death at 20 uM incubated for 72 hrs by resazurin based analysis; format: functional
HCT-116 [27] = assay: Upregulation of p21 protein expression in human HCT-116 cells at 20 uM incubated for 24 hrs by western blot analysis; format: functional, cell-based
HCT-116 [28] = assay: Cytotoxicity against human HCT-116 cells assessed as reduction in cell viability at 10 uM incubated for 72 hrs in presence of ferroptosis inhibitor, ferrostatin-1 by resazurin-based analysis; format: functional
HCT-116 [29] = assay: Cytotoxicity against human HCT-116 cells assessed as reduction in cell viability at 10 uM incubated for 72 hrs in presence of autophagy inhibitor, 3-methyladenine by resazurin-based analysis; format: functional
HCT-116 [30] = assay: Increase in mitochondrial complex I activity in human HCT-116 cells at 20 uM incubated for 24 hrs; format: functional, cell-based
HCT-116 [31] = assay: Upregulation of phosphorylated p53 expression in human HCT-116 cells expressing wild type p53 at 20 uM incubated for 24 hrs by western blot analysis; format: functional, cell-based
HCT-116 [32] = assay: Cytotoxicity against human HCT-116 cells deficit of p53 expression assessed as induction of cell death at 20 uM incubated for 72 hrs by resazurin based analysis; format: functional

With `COc1ccc(-c2cc(=O)c3c(O)cc(O)cc3o2)cc1-c1c(O)cc(O)c2c(=O)cc(-c3ccc(O)cc3)oc12` [BILOBETIN] the Activity (HCT-116 [1]) was “Active”, the Activity (HCT-116 [2]) was 4.88% and the Activity (HCT-116 [3]) was “Active”. For the same compound, the inhibition (HCT-116 [4]) was “Active”, the Activity (HCT-116 [5]) was “Active” and the Activity (HCT-116 [6]) was “Active”. The Activity (HCT-116 [7]) was “Active”, the viability at 10 µM (HCT-116 [8]) was 67.9% and the Activity (HCT-116 [9]) was 41%. The Activity (HCT-116 [10]) was 6.94%, the Activity (HCT-116 [11]) was “Active” and the Activity (HCT-116 [12]) was 59.9%. The Activity (LoVo) was “Active”, the Activity (HCT-116 [13]) was “Active” and the inhibition [14] was “Active”. The Activity (HCT-116 [15]) was 32.7%, the Activity (HT-29) was “inactive” and the Activity (HCT-116 [16]) was 0.49%. The Activity (HCT-116 [17]) was “Active”, the viability at 20 µM (HCT-116 [18]) was 52.6% and the Activity (HCT-116 [19]) was “inactive”. The Activity (HCT-116 [20]) was “Active”, the Activity (HCT-116 [21]) was 28% and the Activity (HCT-116 [22]) was “Active”. For the same compound, the Activity (HCT-116 [23]) was 51.2%, the Activity (HCT-116 [24]) was 64.4% and the Activity (HCT-116 [25]) was 3.58%. The inhibition [26] was “Active”, the Activity (SW-620) was “inactive” and the Activity (HCT-116 [27]) was “inactive”. For the same compound, the Activity (HCT-116 [28]) was “inactive”, the Activity (HCT-116 [29]) was “inactive” and the Activity (HCT-116 [30]) was “Active”. The Activity (HCT-116 [31]) was “Active” and the Activity (HCT-116 [32]) was “inactive”.
For `COc1cc(O)c2c(=O)cc(-c3ccc(OC)c(-c4c(O)cc(O)c5c(=O)cc(-c6ccc(O)cc6)oc45)c3)oc2c1` [GINKGETIN], the Activity (HCT-116 [1]) was “Active”, the Activity (HCT-116 [2]) was 3.37% and the Activity (HCT-116 [3]) was “Active”. The inhibition (HCT-116 [4]) was “Active”, the Activity (HCT-116 [5]) was “Active” and the Activity (HCT-116 [6]) was “Active”. The Activity (HCT-116 [7]) was “Active”, the viability at 10 µM (HCT-116 [8]) was 67.6% and the Activity (HCT-116 [9]) was 52.1%. The Activity (HCT-116 [10]) was 10.5%, the Activity (HCT-116 [11]) was “Active” and the Activity (HCT-116 [12]) was 51.2%. The Activity (LoVo) was “Active”, the Activity (HCT-116 [13]) was “Active” and the inhibition [14] was “Active”. The Activity (HCT-116 [15]) was 39.2%, the Activity (HT-29) was “inactive” and the Activity (HCT-116 [16]) was 0.54%. For the same compound, the Activity (HCT-116 [17]) was “Active”, the viability at 20 µM (HCT-116 [18]) was 55.4% and the Activity (HCT-116 [19]) was “inactive”. For the same compound, the Activity (HCT-116 [20]) was “Active”, the Activity (HCT-116 [21]) was 25.8% and the Activity (HCT-116 [22]) was “Active”. It also gave an Activity (HCT-116 [23]) of 45.3%, an Activity (HCT-116 [24]) of 58.1% and an Activity (HCT-116 [25]) of 5.69%. For the same compound, the inhibition [26] was “Active”, the Activity (SW-620) was “inactive” and the Activity (HCT-116 [27]) was “inactive”. For the same compound, the Activity (HCT-116 [28]) was “inactive”, the Activity (HCT-116 [29]) was “inactive” and the Activity (HCT-116 [30]) was “Active”. The Activity (HCT-116 [31]) was “Active” and the Activity (HCT-116 [32]) was “inactive”.
With `COc1ccc(-c2cc(=O)c3c(O)cc(O)c(-c4cc(-c5cc(=O)c6c(O)cc(O)cc6o5)ccc4OC)c3o2)cc1` [ISOGINKGETIN] the Activity (HCT-116 [1]) was “Active”, the Activity (HCT-116 [2]) was 1.38% and the Activity (HCT-116 [3]) was “Active”. For the same compound, the inhibition (HCT-116 [4]) was “Active”, the Activity (HCT-116 [5]) was “Active” and the Activity (HCT-116 [6]) was “Active”. The Activity (HCT-116 [7]) was “Active”, the viability at 10 µM (HCT-116 [8]) was 70% and the Activity (HCT-116 [9]) was 46.6%. The Activity (HCT-116 [10]) was 9.54%, the Activity (HCT-116 [11]) was “Active” and the Activity (HCT-116 [12]) was 52.6%. The Activity (LoVo) was “Active”, the Activity (HCT-116 [13]) was “Active” and the inhibition [14] was “Active”. The Activity (HCT-116 [15]) was 36.7%, the Activity (HT-29) was “inactive” and the Activity (HCT-116 [16]) was 0.79%. The Activity (HCT-116 [17]) was “Active”, the viability at 20 µM (HCT-116 [18]) was 49.1% and the Activity (HCT-116 [19]) was “inactive”. For the same compound, the Activity (HCT-116 [20]) was “Active”, the Activity (HCT-116 [21]) was 26.5% and the Activity (HCT-116 [22]) was “Active”. It also gave an Activity (HCT-116 [23]) of 47.3%, an Activity (HCT-116 [24]) of 58.4% and an Activity (HCT-116 [25]) of 2.58%. The inhibition [26] was “Active”, the Activity (SW-620) was “inactive” and the Activity (HCT-116 [27]) was “inactive”. The Activity (HCT-116 [28]) was “inactive”, the Activity (HCT-116 [29]) was “inactive” and the Activity (HCT-116 [30]) was “Active”. For the same compound, the Activity (HCT-116 [31]) was “Active” and the Activity (HCT-116 [32]) was “inactive”.
